{
  "source": "paper PMC5118696",
  "about": "“Identification of inhibitors that dually target the new permeability pathway and dihydroorotate dehydrogenase in the blood stage of Plasmodium falciparum” (Scientific Reports, 2016)",
  "data": [
    {"system": "Hyp1-NLuc Plasmodium falciparum-infected erythrocytes (new permeability pathway, NPP)", "assay": "microbe, parasite or virus in culture", "conditions": "Erythrocyte, 0.33 h, read-out: Mean RLU at 28 min (As % of DMSO control)", "units": {"activity at 2 µM": "%"}, "values": [
      {"molecule": "O=C(Nc1ccc(-c2nc3cc(NC(=O)c4ccc(Cl)cc4)ccc3[nH]2)cc1)c1ccc(Cl)cc1", "note": "[MMV006962]", "activity at 2 µM": 101},
      {"molecule": "Cc1cc(NC(=O)c2ccc(-c3ccccc3)cc2)no1", "note": "[MMV018984]", "activity at 2 µM": 111},
      {"molecule": "COc1ccc2c(c1)OC(O)(C(F)(F)C(F)(F)F)CC2=O", "note": "(stereo not shown) [MMV007839]", "activity at 2 µM": 104},
      {"molecule": "CCOC(=O)c1c(NC(=O)c2ccccc2)sc2c(O)c(CN(CC)CC)ccc12", "note": "[MMV665831]", "activity at 2 µM": 103},
      {"molecule": "COc1ccc(Br)cc1C1Nc2ccc3ccccc3c2C2=C1C(=O)CC(c1ccccc1)C2", "note": "(stereo not shown) [MMV020885]", "activity at 2 µM": 100},
      {"molecule": "COc1ccccc1C(=O)ON=C(N)Cc1cccc2ccccc12", "note": "[MMV666686]", "activity at 2 µM": 102},
      {"molecule": "CCC(=O)Nc1nnc(Cc2ccc(OC)c(OC)c2)s1", "note": "[MMV020942]", "activity at 2 µM": 102},
      {"molecule": "CCn1c(CN2CCN(Cc3ccccc3)CC2)nc2cc(NC(=O)c3cccs3)ccc21", "note": "[MMV020439]", "activity at 2 µM": 20.1},
      {"molecule": "Cc1cc(Nc2ccc(OCc3ccccc3)cc2)nc2cc(O)ccc12", "note": "[MMV007181]", "activity at 2 µM": 105},
      {"molecule": "c1ccc(CNc2nc(Nc3ccccc3)nc3ccccc23)cc1", "note": "[MMV006169]", "activity at 2 µM": 102},
      {"molecule": "COc1ccc2sc(N(Cc3cccnc3)C(=O)c3ccc(C#N)cc3)nc2c1", "note": "[MMV001239]", "activity at 2 µM": 92.1},
      {"molecule": "COc1cccc(C(=O)Nc2ccc(-c3nc4ccccc4[nH]3)cc2)c1", "note": "[MMV019762]", "activity at 2 µM": 96.5},
      {"molecule": "Cc1ccc(Cl)cc1N1CCN(CCCNC(=O)C2CCN(c3nc4ccccc4[nH]3)CC2)CC1", "note": "[MMV019746]", "activity at 2 µM": 105},
      {"molecule": "COc1ccc(CNC(=O)c2cc3c(=O)n4ccccc4nc3n(CCc3ccccc3)c2=N)cc1", "note": "[MMV665881]", "activity at 2 µM": 104},
      {"molecule": "Oc1ccc(-c2nc(-c3ccc4oc5ccc(-c6[nH]c(-c7ccc(O)cc7)nc6-c6ccccc6)cc5c4c3)c(-c3ccccc3)[nH]2)cc1", "note": "[MMV000753]", "activity at 2 µM": 88.1},
      {"molecule": "CCCN(CCC)CC(O)COc1ccccc1C(=O)Nc1ccccc1", "note": "(stereo not shown) [MMV006455]", "activity at 2 µM": 105},
      {"molecule": "CCCCCC(=O)N1c2ccccc2N=C2CC(c3ccc(OC)c(OC)c3)CC(O)=C2C1c1ccc(C(F)(F)F)cc1", "note": "(stereo not shown) [MMV085583]", "activity at 2 µM": 103},
      {"molecule": "Oc1ccc(Br)cc1CN1CCN(Cc2ccc(Cl)cc2)CC1", "note": "[MMV665809]", "activity at 2 µM": 93.3},
      {"molecule": "CCOc1ccc2nc(C)cc(Nc3ccc(N(C)C)cc3)c2c1", "note": "[MMV007020]", "activity at 2 µM": 102},
      {"molecule": "CCCc1cc(O)c2c3c(c(=O)oc2c1)CN(C)CC3", "note": "[MMV665841]", "activity at 2 µM": 107},
      {"molecule": "O=C(Nc1ccc(F)c(Cl)c1)Nc1ccc(Cl)c(Cl)c1", "note": "[MMV665953]", "activity at 2 µM": 108},
      {"molecule": "Cc1sc(NC(=O)c2ccccc2)c(C(c2cccs2)N2CCN(c3ccccc3)CC2)c1C", "note": "(stereo not shown) [MMV396652]", "activity at 2 µM": 101},
      {"molecule": "O=C(NNc1cc(N2CCCC2)nc(N2CCCC2)n1)c1ccccc1", "note": "[MMV396770]", "activity at 2 µM": 101},
      {"molecule": "O=C1C2=C(Nc3ccccc3SC2c2ccccc2)c2ccccc21", "note": "(stereo not shown) [MMV645672]", "activity at 2 µM": 106},
      {"molecule": "COc1ccc(C(=O)NC(c2ccc(Cl)cc2Cl)c2cc(Cl)c3cccnc3c2O)cc1", "note": "(stereo not shown) [MMV666054]", "activity at 2 µM": 101},
      {"molecule": "Brc1ccc(Nc2nc3ccccc3nc2Nc2ccc(Br)cc2)cc1", "note": "[MMV007224]", "activity at 2 µM": 95.5},
      {"molecule": "CN1C=C(c2ccc3ccccc3n2)C(c2c[nH]c3ccccc23)c2ccccc21", "note": "(stereo not shown) [MMV008160]", "activity at 2 µM": 91.7},
      {"molecule": "CCOc1cccc2sc(N(Cc3cccnc3)C(=O)C3CCCCC3)nc12", "note": "[MMV001230]", "activity at 2 µM": 103},
      {"molecule": "CCOc1ccc(-c2nonc2NC(=O)c2cccc(C)c2)cc1OCC", "note": "[MMV665805]", "activity at 2 µM": 106},
      {"molecule": "O=C(NCC1Cc2cccc(-c3ccncc3)c2O1)c1csc2c1CCCC2", "note": "(stereo not shown) [MMV665954]", "activity at 2 µM": 104},
      {"molecule": "CCN(CC)CCCNc1ccnc2cc3ccccc3cc12", "note": "[MMV665783]", "activity at 2 µM": 101},
      {"molecule": "COc1ccc(CNC2CCN(c3ccc(NC(=O)c4cccc(Cl)c4)cc3)CC2)cc1OC", "note": "[MMV666067]", "activity at 2 µM": 101},
      {"molecule": "CC(C)c1ccc(CNCC(O)c2ccccc2)cc1", "note": "(stereo not shown) [MMV001049]", "activity at 2 µM": 113},
      {"molecule": "O=C(NC(c1ccccc1)c1ccc2cccnc2c1O)c1ccccc1", "note": "(stereo not shown) [MMV666080]", "activity at 2 µM": 104},
      {"molecule": "COc1ccc(-c2cc(=O)oc3c4c(ccc23)OCN(Cc2ccc(F)cc2)C4)cc1", "note": "[MMV000604]", "activity at 2 µM": 104}
    ]},
    {"system": "Hyp1-NLuc Plasmodium falciparum-infected erythrocytes (new permeability pathway, NPP)", "assay": "microbe, parasite or virus in culture", "conditions": "Erythrocyte, 0.33 h, read-out: % of control remaining", "units": {"activity at 2 µM": "%"}, "values": [
      {"molecule": "O=C(Nc1ccc(-c2nc3cc(NC(=O)c4ccc(Cl)cc4)ccc3[nH]2)cc1)c1ccc(Cl)cc1", "note": "[MMV006962]", "activity at 2 µM": 99.7},
      {"molecule": "Cc1cc(NC(=O)c2ccc(-c3ccccc3)cc2)no1", "note": "[MMV018984]", "activity at 2 µM": 110},
      {"molecule": "COc1ccc2c(c1)OC(O)(C(F)(F)C(F)(F)F)CC2=O", "note": "(stereo not shown) [MMV007839]", "activity at 2 µM": 93.7},
      {"molecule": "CCOC(=O)c1c(NC(=O)c2ccccc2)sc2c(O)c(CN(CC)CC)ccc12", "note": "[MMV665831]", "activity at 2 µM": 103},
      {"molecule": "COc1ccc(Br)cc1C1Nc2ccc3ccccc3c2C2=C1C(=O)CC(c1ccccc1)C2", "note": "(stereo not shown) [MMV020885]", "activity at 2 µM": 97.2},
      {"molecule": "COc1ccccc1C(=O)ON=C(N)Cc1cccc2ccccc12", "note": "[MMV666686]", "activity at 2 µM": 96.4},
      {"molecule": "CCC(=O)Nc1nnc(Cc2ccc(OC)c(OC)c2)s1", "note": "[MMV020942]", "activity at 2 µM": 102},
      {"molecule": "CCn1c(CN2CCN(Cc3ccccc3)CC2)nc2cc(NC(=O)c3cccs3)ccc21", "note": "[MMV020439]", "activity at 2 µM": 18.4},
      {"molecule": "Cc1cc(Nc2ccc(OCc3ccccc3)cc2)nc2cc(O)ccc12", "note": "[MMV007181]", "activity at 2 µM": 108},
      {"molecule": "c1ccc(CNc2nc(Nc3ccccc3)nc3ccccc23)cc1", "note": "[MMV006169]", "activity at 2 µM": 114},
      {"molecule": "COc1ccc2sc(N(Cc3cccnc3)C(=O)c3ccc(C#N)cc3)nc2c1", "note": "[MMV001239]", "activity at 2 µM": 64.1},
      {"molecule": "COc1cccc(C(=O)Nc2ccc(-c3nc4ccccc4[nH]3)cc2)c1", "note": "[MMV019762]", "activity at 2 µM": 97.1},
      {"molecule": "Cc1ccc(Cl)cc1N1CCN(CCCNC(=O)C2CCN(c3nc4ccccc4[nH]3)CC2)CC1", "note": "[MMV019746]", "activity at 2 µM": 112},
      {"molecule": "COc1ccc(CNC(=O)c2cc3c(=O)n4ccccc4nc3n(CCc3ccccc3)c2=N)cc1", "note": "[MMV665881]", "activity at 2 µM": 98},
      {"molecule": "Oc1ccc(-c2nc(-c3ccc4oc5ccc(-c6[nH]c(-c7ccc(O)cc7)nc6-c6ccccc6)cc5c4c3)c(-c3ccccc3)[nH]2)cc1", "note": "[MMV000753]", "activity at 2 µM": 89.5},
      {"molecule": "CCCN(CCC)CC(O)COc1ccccc1C(=O)Nc1ccccc1", "note": "(stereo not shown) [MMV006455]", "activity at 2 µM": 104},
      {"molecule": "CCCCCC(=O)N1c2ccccc2N=C2CC(c3ccc(OC)c(OC)c3)CC(O)=C2C1c1ccc(C(F)(F)F)cc1", "note": "(stereo not shown) [MMV085583]", "activity at 2 µM": 102},
      {"molecule": "Oc1ccc(Br)cc1CN1CCN(Cc2ccc(Cl)cc2)CC1", "note": "[MMV665809]", "activity at 2 µM": 91.7},
      {"molecule": "CCOc1ccc2nc(C)cc(Nc3ccc(N(C)C)cc3)c2c1", "note": "[MMV007020]", "activity at 2 µM": 102},
      {"molecule": "CCCc1cc(O)c2c3c(c(=O)oc2c1)CN(C)CC3", "note": "[MMV665841]", "activity at 2 µM": 103},
      {"molecule": "O=C(Nc1ccc(F)c(Cl)c1)Nc1ccc(Cl)c(Cl)c1", "note": "[MMV665953]", "activity at 2 µM": 125},
      {"molecule": "Cc1sc(NC(=O)c2ccccc2)c(C(c2cccs2)N2CCN(c3ccccc3)CC2)c1C", "note": "(stereo not shown) [MMV396652]", "activity at 2 µM": 104},
      {"molecule": "O=C(NNc1cc(N2CCCC2)nc(N2CCCC2)n1)c1ccccc1", "note": "[MMV396770]", "activity at 2 µM": 88.7},
      {"molecule": "O=C1C2=C(Nc3ccccc3SC2c2ccccc2)c2ccccc21", "note": "(stereo not shown) [MMV645672]", "activity at 2 µM": 106},
      {"molecule": "COc1ccc(C(=O)NC(c2ccc(Cl)cc2Cl)c2cc(Cl)c3cccnc3c2O)cc1", "note": "(stereo not shown) [MMV666054]", "activity at 2 µM": 106},
      {"molecule": "Brc1ccc(Nc2nc3ccccc3nc2Nc2ccc(Br)cc2)cc1", "note": "[MMV007224]", "activity at 2 µM": 104},
      {"molecule": "CN1C=C(c2ccc3ccccc3n2)C(c2c[nH]c3ccccc23)c2ccccc21", "note": "(stereo not shown) [MMV008160]", "activity at 2 µM": 86},
      {"molecule": "CCOc1cccc2sc(N(Cc3cccnc3)C(=O)C3CCCCC3)nc12", "note": "[MMV001230]", "activity at 2 µM": 113},
      {"molecule": "CCOc1ccc(-c2nonc2NC(=O)c2cccc(C)c2)cc1OCC", "note": "[MMV665805]", "activity at 2 µM": 107},
      {"molecule": "O=C(NCC1Cc2cccc(-c3ccncc3)c2O1)c1csc2c1CCCC2", "note": "(stereo not shown) [MMV665954]", "activity at 2 µM": 117},
      {"molecule": "CCN(CC)CCCNc1ccnc2cc3ccccc3cc12", "note": "[MMV665783]", "activity at 2 µM": 106},
      {"molecule": "COc1ccc(CNC2CCN(c3ccc(NC(=O)c4cccc(Cl)c4)cc3)CC2)cc1OC", "note": "[MMV666067]", "activity at 2 µM": 111},
      {"molecule": "CC(C)c1ccc(CNCC(O)c2ccccc2)cc1", "note": "(stereo not shown) [MMV001049]", "activity at 2 µM": 116},
      {"molecule": "O=C(NC(c1ccccc1)c1ccc2cccnc2c1O)c1ccccc1", "note": "(stereo not shown) [MMV666080]", "activity at 2 µM": 114},
      {"molecule": "COc1ccc(-c2cc(=O)oc3c4c(ccc23)OCN(Cc2ccc(F)cc2)C4)cc1", "note": "[MMV000604]", "activity at 2 µM": 106}
    ]}
  ]
}
